From ChEMBL document CHEMBL1142888, “Synthesis, antimicrobial, and anti-inflammatory activities of novel 2-(1-adamantyl)-5-substituted-1,3,4-oxadiazoles and 2-(1-adamantylamino)-5-substituted-1,3,4-thiadiazoles” (2007)
Converted amounts (≈) assume the structure as drawn.

How the values were obtained:
[1] = test system: Escherichia coli; test: Antimicrobial activity against Escherichia coli IFO 3301 at 100 ug/disc after 24 hrs; type: functional; details: IFO 3301, 24 h, read-out: IZ
[2] = test system: Pseudomonas aeruginosa; test: microbe, parasite or virus in culture; details: IFO 3448
Description: Antimicrobial activity against Pseudomonas aeruginosa IFO 3448 at 200 ug/disc

[3] = test system: Pseudomonas aeruginosa; test: Antimicrobial activity against Pseudomonas aeruginosa IFO 3448 at 100 ug/disc; type: functional; details: read-out: IZ
[4] = test system: Bacillus subtilis; test: Antimicrobial activity against Bacillus subtilis IFO 3007 after 24 hrs; type: functional; details: IFO 3007, 24 h
[5] = test system: Staphylococcus aureus; test: Antimicrobial activity against Staphylococcus aureus IFO 3060 at 100 ug/disc after 24 hrs; type: functional; details: IFO 3060, 24 h, read-out: IZ
[6] = test system: Bacillus subtilis; test: Antimicrobial activity against Bacillus subtilis IFO 3007 at 100 ug/disc after 24 hrs; type: functional; details: IFO 3007, 24 h, read-out: IZ
[7] = test system: Staphylococcus aureus; test: Antimicrobial activity against Staphylococcus aureus IFO 3060 after 24 hrs; type: functional; details: IFO 3060, 24 h

CC1(C)S[C@@H]2[C@H](NC(=O)[C@H](N)c3ccccc3)C(=O)N2[C@H]1C(=O)O [AMPICILLIN]
zone of inhibition at 100 µg/disc [1]: 16 mm
MIC [2]: 2 µg/mL (≈ 5.72 µM)
zone of inhibition at 100 µg/disc [3]: 15 mm
MIC [4]: 0.5 µg/mL (≈ 1.43 µM)
zone of inhibition at 100 µg/disc [5]: 19 mm
zone of inhibition at 100 µg/disc [6]: 18 mm
MIC [7]: 1 µg/mL (≈ 2.86 µM)
